Data on 5 compounds can be found in patent publication US9481648B2, “Kinase inhibitors” (Respivert Limited, priority 2013, dated 2016).

One data set has as its target p38 MAPKα (MAPK14) (Homo sapiens (Human), UniProt Q16539). Briefly: p38 MAPKα enzyme inhibition (FRET, Z-LYTE; Method 2). The data set is classed as biochemical.
A further data set concerns the target c-Src (Homo sapiens (Human), UniProt P12931). Briefly: c-Src enzyme inhibition (FRET, Z-LYTE). The data set is classed as biochemical. The method, boiled down: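 Syk or c-Src enzyme (3000 or 2000 ng/mL solutions) was preincubated 2 h at RT with compound solutions at 1, 0.1, 0.01 or 0.001 µg/mL. Z-LYTE FRET peptide (8 µM solution) and ATP (800 µM solution for c-Src, 60 µM for Syk) were then added for 1 h, followed by protease development for 1 h. Phosphorylation was read as the coumarin/fluorescein emission ratio.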

The target in data set [1] is human ether a go-go (hERG) channel (Homo sapiens (Human), UniProt Q12809). Nature of the data set: hERG inhibition (IonWorks patch clamp electrophysiology). Format: cell-based. The settings on record: IonWorks patch clamp. The protocol: (§1) Compounds of the invention were tested for inhibition of the human ether a go-go (hERG) channel using IonWorks™ patch clamp electrophysiology at Essen Bioscience (Welwyn Garden City, England).
A general note: hERG is a cardiac potassium channel; its block is linked to QT prolongation.

Another data set concerns the target hERG channel (Homo sapiens (Human), UniProt Q12809). The description is as above. Format: cell-based. The settings on record: human, 3 μM. The protocol:
as §1

The next data set concerns the target GSK 3α (Homo sapiens (Human), UniProt P49840). Briefly: GSK 3α enzyme inhibition (FRET, Z-LYTE; Method 2). The data set is classed as biochemical. The settings on record: read-out: IC50 Values for Enzyme Inhibition GSK3α. An outline of the steps: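 Z-LYTE FRET assay: GSK3-α (500 ng/mL stock) preincubated 105 min at RT with compound at 10, 1, 0.1 or 0.01 μg/mL stock. FRET peptide (8 μM stock) and ATP (40 μM stock) were then added for 1 h, followed by protease development for 1 h. Phosphorylation was read as coumarin/fluorescein emission ratio.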

Data set [2] has as its system rat, Cynomolgus macaque or human hepatocytes. Briefly: Analysis of metabolites after incubation with hepatocytes. Format: in vitro ADME. The settings on record: 10 μM. The protocol:
Studies were conducted by BioFocus (Saffron Walden, UK) to determine the metabolic fate of the compound of Example 16 following incubation with rat, Cynomolgus macaque or human hepatocytes.
Separate incubations (n=3) of the compound of Example 16 (10 μM initial concentration) or DMSO control, were performed with cryopreserved hepatocytes from each species (0.5 million cell/mL) at 37° C. for 0, 60 and 90 minutes before termination of reactions and compound extraction with acetonitrile. Sample replicates were pooled prior to analysis.
Potential metabolites were identified using time-of-flight (TOF) and triple quadruple (TQ) mass spectrometers.

A short description of data set [3]: Plasma pharmacokinetics and total colon tissue distribution in mice, single oral administration. Format: in vivo, mouse (male C57BL/6). The settings on record: male, C57BL/6, mouse, 5 mg/kg. The protocol:
Studies were conducted by Sai Life Sciences (Hinjewadi, Pune, India) to investigate the plasma pharmacokinetics and total colon tissue distribution of compounds of the invention. In particular, pharmacokinetic studies were carried out in: • male C57BL/6 mice, following a single oral administration; and • male Wistar rats following a single intravenous or oral administration.

For a further data set, the system named is human hepatocytes. Nature of the data set: Human hepatocyte stability test. Format: in vitro ADME. The protocol:
Assessment of certain in vitro ADME (absorption, distribution, metabolism, and excretion) parameters for certain compounds of the invention was conducted by BioFocus (Saffron Walden, UK).

[4] abbreviates: plasma, read-out: Median plasma concentration.
[5] abbreviates: total colon, read-out: Median total colon concentration.

Like-named read-outs stand apart in the source and are kept apart here.

Sequence of GSK 3α (P49840 whole entry): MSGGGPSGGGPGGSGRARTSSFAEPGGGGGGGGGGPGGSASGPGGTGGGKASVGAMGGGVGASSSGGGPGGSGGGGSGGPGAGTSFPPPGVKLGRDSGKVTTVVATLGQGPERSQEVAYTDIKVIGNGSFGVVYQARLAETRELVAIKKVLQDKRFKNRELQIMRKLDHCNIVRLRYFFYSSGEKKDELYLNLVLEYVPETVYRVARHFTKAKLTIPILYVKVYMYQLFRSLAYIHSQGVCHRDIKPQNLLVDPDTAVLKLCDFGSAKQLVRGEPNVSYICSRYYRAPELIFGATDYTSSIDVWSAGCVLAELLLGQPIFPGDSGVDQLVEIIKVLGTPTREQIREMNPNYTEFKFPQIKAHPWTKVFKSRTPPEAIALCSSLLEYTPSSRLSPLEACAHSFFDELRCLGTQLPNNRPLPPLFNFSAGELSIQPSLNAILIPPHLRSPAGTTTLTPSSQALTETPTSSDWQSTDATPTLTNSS
Sequence of p38 MAPKα (MAPK14) (Q16539 whole entry): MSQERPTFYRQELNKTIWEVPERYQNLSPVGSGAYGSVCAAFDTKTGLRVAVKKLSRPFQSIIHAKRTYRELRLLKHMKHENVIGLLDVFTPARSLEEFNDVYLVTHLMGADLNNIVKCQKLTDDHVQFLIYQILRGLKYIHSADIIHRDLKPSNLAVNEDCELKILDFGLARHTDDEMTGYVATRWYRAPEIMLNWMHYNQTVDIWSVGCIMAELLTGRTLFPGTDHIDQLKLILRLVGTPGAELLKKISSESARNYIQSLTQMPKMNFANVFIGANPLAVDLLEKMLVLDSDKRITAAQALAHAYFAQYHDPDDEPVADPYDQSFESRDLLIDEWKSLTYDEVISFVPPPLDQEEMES
Sequence of human ether a go-go (hERG) channel (Q12809 whole entry): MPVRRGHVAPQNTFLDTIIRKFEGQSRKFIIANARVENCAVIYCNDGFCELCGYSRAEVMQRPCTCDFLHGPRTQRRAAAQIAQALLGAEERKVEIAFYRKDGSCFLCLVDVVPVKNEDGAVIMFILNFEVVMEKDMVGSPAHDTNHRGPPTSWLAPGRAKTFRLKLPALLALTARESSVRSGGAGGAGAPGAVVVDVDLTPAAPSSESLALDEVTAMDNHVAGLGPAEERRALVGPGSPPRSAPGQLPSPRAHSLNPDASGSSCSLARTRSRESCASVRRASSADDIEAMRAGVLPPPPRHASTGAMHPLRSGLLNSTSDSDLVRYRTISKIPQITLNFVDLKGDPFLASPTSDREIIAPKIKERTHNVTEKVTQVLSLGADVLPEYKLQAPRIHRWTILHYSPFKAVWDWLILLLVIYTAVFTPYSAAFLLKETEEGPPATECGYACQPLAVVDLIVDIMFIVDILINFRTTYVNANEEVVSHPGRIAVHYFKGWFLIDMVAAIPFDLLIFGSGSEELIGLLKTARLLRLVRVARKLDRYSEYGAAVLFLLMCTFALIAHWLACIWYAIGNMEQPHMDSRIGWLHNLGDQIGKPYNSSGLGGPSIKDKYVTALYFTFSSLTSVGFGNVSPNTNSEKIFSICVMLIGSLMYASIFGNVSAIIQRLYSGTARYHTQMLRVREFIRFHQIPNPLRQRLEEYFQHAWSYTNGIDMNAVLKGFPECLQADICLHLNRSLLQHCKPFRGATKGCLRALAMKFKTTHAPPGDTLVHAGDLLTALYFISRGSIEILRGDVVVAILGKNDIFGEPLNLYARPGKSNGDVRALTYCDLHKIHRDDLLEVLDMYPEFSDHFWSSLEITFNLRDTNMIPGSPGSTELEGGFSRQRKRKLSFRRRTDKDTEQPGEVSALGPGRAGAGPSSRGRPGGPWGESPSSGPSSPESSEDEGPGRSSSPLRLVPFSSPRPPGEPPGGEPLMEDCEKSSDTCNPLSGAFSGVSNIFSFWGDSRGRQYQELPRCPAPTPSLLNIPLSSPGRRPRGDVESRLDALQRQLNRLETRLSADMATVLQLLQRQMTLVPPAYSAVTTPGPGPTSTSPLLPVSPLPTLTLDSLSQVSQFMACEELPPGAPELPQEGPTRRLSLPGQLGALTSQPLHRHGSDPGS
Sequence of hERG channel (Q12809 whole entry): as above
Sequence of c-Src (P12931 whole entry, looked up): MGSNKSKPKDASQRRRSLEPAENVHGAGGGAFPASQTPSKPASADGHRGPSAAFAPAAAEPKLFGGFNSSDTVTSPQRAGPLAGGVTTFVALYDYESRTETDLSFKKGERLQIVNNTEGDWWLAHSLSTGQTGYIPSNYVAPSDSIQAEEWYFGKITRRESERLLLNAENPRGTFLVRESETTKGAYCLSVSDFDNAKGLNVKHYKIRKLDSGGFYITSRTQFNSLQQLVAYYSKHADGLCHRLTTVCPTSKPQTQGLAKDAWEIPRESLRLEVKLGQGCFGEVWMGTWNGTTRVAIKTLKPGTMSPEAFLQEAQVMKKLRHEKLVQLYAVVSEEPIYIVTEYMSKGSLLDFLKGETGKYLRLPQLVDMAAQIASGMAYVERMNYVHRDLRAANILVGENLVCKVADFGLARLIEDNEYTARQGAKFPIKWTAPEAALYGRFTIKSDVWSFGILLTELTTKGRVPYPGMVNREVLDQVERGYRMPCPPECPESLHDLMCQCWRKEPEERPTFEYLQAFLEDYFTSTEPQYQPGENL

By IC50 is commonly meant the concentration that gives 50% inhibition. Broadly, the inhibition is the change of the read-out against control, counted positive when it falls. On to `COCCOCCOCCOc1cc(Nc2nccc(Oc3ccc(NC(=O)Nc4cc(C(C)(C)C)cc(NS(C)(=O)=O)c4OC)c4ccccc34)n2)cc(OC)c1` [Example 4, N-(5-(tert-Butyl)-2-methoxy-3-(3-(4-((2-((3-methoxy-5-(2-(2-(2-methoxyethoxy)ethoxy)-ethoxy)phenyl)amino)pyrimidin-4-yl)oxy)naphthalen-1-yl)ureido)phenyl)methanesulfonamide], for which the IC50 against p38 MAPKα (MAPK14) was 91 nM; on c-Src, 14 nM; in data set [1] it was above 3000 nM; on GSK 3α, 2660 nM. In addition, the inhibition at 3 µM at hERG channel is -4 ± 2%.
As for `C#Cc1cc(Nc2nccc(Oc3ccc(NC(=O)Nc4cc(C(C)(C)C)cc(NS(C)(=O)=O)c4OC)c4ccccc34)n2)cc(C(=O)NCCOCCOCCOC)c1` [Example 16], in data set [2] (hepatocytes), the “number of metabolites resulting from oxidation on the polyethylene glycol chain of the amide moiety” value was determined as 8 and the “products connected to metabolism at the naphthalene moiety” value is “no products were noted”. Moreover, the “number of metabolites formed in hepatocytes” value in data set [2] (rat, Cynomolgus macaque or human hepatocytes, 0, 60 and 90 minutes) is on record as 9.
`COc1c(NC(=O)Nc2ccc(Oc3ccnc(Nc4ccccc4)c3)c3ccccc23)cc(C(C)(C)C)cc1C(=O)NC1COC1` [Example 75, 5-(tert-Butyl)-2-methoxy-N-(oxetan-3-yl)-3-(3-(4-((2-(phenylamino)pyridin-4-yl)oxy)-naphthalen-1-yl)ureido)benzamide]: in data set [3] (setting [4]), the concentration at 1 h came to 1.8 ng/mL, the concentration at 2 h came out at 1.5 ng/mL, the concentration at 4 h is 0 ng/mL and the concentration at 6 h amounted to 0 ng/mL. Also, in data set [3] (setting [4]), the concentration at 8 h came to 0 ng/mL, the concentration at 12 h was 0 ng/mL and the concentration at 24 h was found to be 0 ng/mL. Further, in data set [3] (setting [5]), the concentration at 1 h amounted to 17.8 ng/g, the concentration at 2 h is 56.2 ng/g, the concentration at 4 h amounted to 1340 ng/g and the concentration at 6 h worked out at 5720 ng/g. Also, in data set [3] (setting [5]), the concentration at 8 h was 350 ng/g, the concentration at 12 h turned out to be 391 ng/g and the concentration at 24 h came out at 7.5 ng/g. This compound also registered an IC50 on p38 MAPKα (MAPK14) of 123 nM. The midpoint of inhibition against c-Src, the IC50, lay at 97 nM. In data set [1], this compound registered an IC50 above 3000 nM. In addition, the inhibition at 3 µM against hERG channel is 0%. Also, on GSK 3α, the IC50 amounted to 6030 nM. In the data set on human hepatocytes, the “Mean hepatic extraction ratio” value was below 0.50.
With `COc1cc(Nc2cc(Oc3ccc(NC(=O)Nc4cc(C(C)(C)C)cc(NS(C)(=O)=O)c4OC)c4ccccc34)ccn2)cc(C(=O)NCCN2CCOCC2)c1` [Example 27], the IC50 at p38 MAPKα (MAPK14) was 41 nM; on c-Src it was 26 nM; in data set [1] it was above 3000 nM; at GSK 3α it was 4500 nM. Moreover, the inhibition at 3 µM against hERG channel is -3 ± 5%.
Regarding `COCCOCCOCCNC(=O)c1cc(Nc2cc(Oc3ccc(NC(=O)Nc4cc(C(C)(C)C)cc(NS(C)(=O)=O)c4OC)c4ccccc34)ccn2)cc(OC)c1` [Example 3, 3-((4-((4-(3-(5-(tert-Butyl)-2-methoxy-3-(methylsulfonamido)phenyl)ureido)naphthalen-1-yl)oxy)pyridin-2-yl)amino)-5-methoxy-N-(2-(2-(2-methoxyethoxy)ethoxy)ethyl)benzamide], the concentration at 6 h in data set [3] (setting [4]) amounted to 114 ng/mL. In data set [3] (setting [5]), the concentration at 1 h stood at 107 ng/g, the concentration at 2 h was 274 ng/g, the concentration at 4 h turned out to be 209 ng/g and the concentration at 6 h was found to be 255 ng/g. Also, in data set [3] (setting [5]), the concentration at 8 h amounted to 278 ng/g, the concentration at 12 h was found to be 232 ng/g and the concentration at 24 h was found to be 19.1 ng/g. At p38 MAPKα (MAPK14), this compound yielded an IC50 of 87 nM. The compound further registered an IC50 against c-Src of 20 nM. This compound gave a concentration for half-maximal inhibition (IC50) in data set [1] above 3000 nM. In addition, the inhibition at 3 µM at hERG channel is -2 ± 2%. For the same compound, the IC50 on GSK 3α was determined as 4320 nM. In addition, the “Mean hepatic extraction ratio” value with human hepatocytes came to 0.85.
